The values that follow come from US20070123462A1, “Effects of tissue transglutaminase on beta-amyloid-induced apoptosis” (Cornell Research Foundation, Inc., priority 2005, published 2007).

For data set [1], the system named is TGase. The experiment in a line: TGase expression and level in SH-SY5Y cells and cell fractions (immunoblot). The format is cell-based, human. The procedure:
To induce differentiation, human SH-SY5Y cells were cultured in phenol red-free, low serum media with 20 μM all-trans-retinoic acid (RA; Sigma) every other day for 6 days. When assaying cell viability, the cells were plated in 96-well dishes at a seeding density of approximately 5×10^3 cells per well, differentiated with 20 μM RA, and then treated with either media alone, 25 μM monodansyl cadaverine (MDC), β-amyloid1-42 (2.5, 5, and 10 μM) (HPLC-purified from American Peptide, Sunnyvale, Calif.), or with 25 μM MDC and different concentrations of β-amyloid1-42. Typically, β-amyloid1-42 was reconstituted in […] and then further diluted into cell culture media, using conditions that have been reported to give rise primarily to β-amyloid oligomers and large aggregates rather than fibrils (Dahlgren et al., J. Biol. Chem. 277:32046-32053 (2002); Stine et al., J. Biol. Chem. 278:11612-11622 (2003), which are hereby incorporated by reference in their entirety). However, in some cases, β-amyloid1-42 was first dissolved in 100% hexafluoroisopropanolol to ensure the elimination of any preexisting aggregates ((Dahlgren et al., J. Biol. Chem. 277:32046-32053 (2002); Stine et al., J. Biol. Chem. 278:11612-11622 (2003), which are hereby incorporated by reference in their entirety) and then this solvent was removed by evaporation prior to reconstituting the peptide in Me2SO. […] Values for untreated controls were set at 100% viability and each treatment was assessed as a percentage of the control values (+/-SD). Each treatment was performed in triplicate and evaluated by using a one-way analysis of variation (ANOVA) with Turkey's post hoc analysis to determine differences between the groups with the a value set at 0.05. SH-SY5Y cells, treated with and without β-amyloid1-42 for 48 hours, were lysed by freeze/thawing using liquid nitrogen in a 0.25 M sucrose solution containing 1 mM dithiothreitol, 1 μg/ml aprotinin, 1 μg/ml leupeptin and 100 μM phenylmethylsulfonyl fluoride. […]
Background: In western blotting, separated proteins are transferred to a membrane and probed.

Data set [2] has as its system RA-differentiated SH-SY5Y cells. The format is cell-based. The procedure:
To induce differentiation, human SH-SY5Y cells were cultured in phenol red-free, low serum media with 20 μM all-trans-retinoic acid (RA; Sigma) every other day for 6 days. When assaying cell viability, the cells were plated in 96-well dishes at a seeding density of approximately 5×10^3 cells per well, differentiated with 20 μM RA, and then treated with either media alone, 25 μM monodansyl cadaverine (MDC), β-amyloid1-42 (2.5, 5, and 10 μM) (HPLC-purified from American Peptide, Sunnyvale, Calif.), or with 25 μM MDC and different concentrations of β-amyloid1-42. Typically, β-amyloid1-42 was reconstituted in […] and then further diluted into cell culture media, using conditions that have been reported to give rise primarily to β-amyloid oligomers and large aggregates rather than fibrils (Dahlgren et al., J. Biol. Chem. 277:32046-32053 (2002); Stine et al., J. Biol. Chem. 278:11612-11622 (2003), which are hereby incorporated by reference in their entirety). However, in some cases, β-amyloid1-42 was first dissolved in 100% hexafluoroisopropanolol to ensure the elimination of any preexisting aggregates ((Dahlgren et al., J. Biol. Chem. 277:32046-32053 (2002); Stine et al., J. Biol. Chem. 278:11612-11622 (2003), which are hereby incorporated by reference in their entirety) and then this solvent was removed by evaporation prior to reconstituting the peptide in Me2SO. Cells were incubated with the reconstituted β-amyloid1-42 for 48 hours and cell viability was then assayed by the reduction of 3-(4,5-dimethylthiazole-2-yl)-2,5-diphenyltetrazolium bromide (MTT), as previously described in Miller et al., Brain Res. 963:43-56 (2003), which is hereby incorporated by reference in its entirety. The effects of H2O2 (10-30 μM) on cell viability were assayed in a similar manner (Tamagno et al., Exp Neurol 180:144-155 (2003), which is hereby incorporated by reference in its entirety). Values for untreated controls were set at 100% viability and each treatment was assessed as a percentage of the control values (+/−SD). Each treatment was performed in triplicate and evaluated by using a one-way analysis of variation (ANOVA) with Turkey's post hoc analysis to determine differences between the groups with the a value set at 0.05.

The target of the next data set is T1, guinea pig liver TGase (Cavia cutleri, UniProt P08587).
T1 construct: 0.1 μg of guinea pig liver TGase (Sigma); purchased Sigma; host or cells: guinea pig liver
T1 sequence (P08587 2-690): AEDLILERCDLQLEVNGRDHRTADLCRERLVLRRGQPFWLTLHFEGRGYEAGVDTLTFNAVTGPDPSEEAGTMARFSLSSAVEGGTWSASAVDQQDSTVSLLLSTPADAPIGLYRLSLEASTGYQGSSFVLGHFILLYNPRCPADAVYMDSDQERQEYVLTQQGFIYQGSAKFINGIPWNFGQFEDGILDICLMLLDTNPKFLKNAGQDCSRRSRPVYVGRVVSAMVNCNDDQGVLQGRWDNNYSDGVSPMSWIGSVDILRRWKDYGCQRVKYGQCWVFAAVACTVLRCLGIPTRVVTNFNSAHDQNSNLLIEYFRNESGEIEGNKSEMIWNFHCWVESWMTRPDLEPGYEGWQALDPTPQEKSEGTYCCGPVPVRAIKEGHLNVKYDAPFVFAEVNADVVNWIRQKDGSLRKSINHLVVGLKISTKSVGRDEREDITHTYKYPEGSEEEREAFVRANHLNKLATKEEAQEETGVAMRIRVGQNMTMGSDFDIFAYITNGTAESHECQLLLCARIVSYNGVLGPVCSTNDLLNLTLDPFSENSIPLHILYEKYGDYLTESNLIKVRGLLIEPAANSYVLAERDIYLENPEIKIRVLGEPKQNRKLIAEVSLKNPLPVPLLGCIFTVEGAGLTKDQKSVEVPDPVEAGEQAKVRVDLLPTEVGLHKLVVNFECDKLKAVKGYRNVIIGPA
As to the kind of experiment: In vitro transamidation (cross-linking) of β-amyloid1-42 by TGase, immunoblot. The format is biochemical. The procedure: FIGS. 11A-B illustrate examination of the cross-linking of β-amyloid by TGase.
The in vitro transamidation reactions were performed with one or all of the following: 1 μg of β-amyloid1-42, 0.1 μg of guinea pig liver TGase (Sigma), 500 μM CaCl2, and/or 50 μM MDC. Each reaction was performed in 50 mM Tris-HCl, pH 7.2, and incubated for 60 minutes at 37° C. The reactions were stopped by the addition of an equal volume of 20% SDS and 10 μl of Laemmeli's sample buffer and immediately boiled for 20 minutes to break up any non-covalent aggregation of β-amyloidi1-42. SDS-PAGE was performed on the samples, followed by blotting onto nitrocellulose membranes (Amersham). The membranes were immunoblotted with anti-β-amyloid antibody.

In a further data set the test system is caspase-3. The experiment in a line: Caspase activation immunoblot in SH-SY5Y cells. It counts as cell-based, human. The text has this: FIGS. 6A-B depict characterization of β-amyloid1-42. […] The β-amyloid was either directly reconstituted in Me2SO or was pre-treated with hexafluoroisopropanol (HFIP) and dessicated prior to reconstitution in Me2SO. […] Activated caspase-3 was detected using a rabbit polyclonal antibody from Cell Signaling (Danvers, Mass.).
FIGS. 9A-B show changes in transglutaminase activity during β-amyloid-induced apoptosis. […] Experimental conditions in FIG. 9B were similar to those described in FIG. 9A, except cells were treated with H2O2 rather than BA for 24 hours.

The subject of a further data set is c-Jun kinase (JNK). The experiment in a line: c-Jun kinase (JNK) activity in β-amyloid-treated cells. The format is cell-based, human. To be noted: β-amyloid1-42-treated cells.
The test system of a further data set is SH-SY5Y cells. The experiment in a line: Nuclear condensation or blebbing apoptosis assay. The format is cell-based, human. The note with it: 5 μM β-amyloid1-42, 48 hours; compared to control cells. An excerpt:
Construction of the pcDNA3 Myc-tagged vector used herein has been described in Tu et al., J. Biol. Chem. 278:49293-49300 (2003), which is hereby incorporated by reference in its entirety. Insertion of the TGase cDNA into the vector was accomplished by performing BamHI and EcoRI restriction-site digestion of the previously generated pTRE TGase (wild-type) vector (Antonyak et al., J. Biol. Chem. 276:33582-33587 (2001), which is hereby incorporated by reference in its entirety) to excise the cDNA encoding wild-type TGase, followed by subcloning it into the pcDNA3 Myc-tagged vector using T4 DNA ligase (Invitrogen, Carlsbad, Calif.). The pcDNA3-Myc-TGase vector was used to generate the transamidation-defective (C277V) mutant with the Quikchange site-directed mutagenesis kit (Stratagene, La Jolla, Calif.). Each TGase construct was sequenced to confirm the presence or absence of the mutation. […]
Immunofluorescence was also performed 48 hours after transient transfections with TGase constructs. […] Cells expressing the various TGase constructs were counted from three separate experiments (over 100 cells from each slide were scored) after β-amyloid1-42 treatment and the apoptotic rate was assessed relative to the percentage of apoptosis for untreated (transfected) cells. […]

For data set [3], the system named is TGase. The experiment in a line: In vivo (cellular) transamidation assay with 5-(biotin-amido)-pentylamine. It counts as cell-based, human. The procedure:
The in vivo transamidation assays were performed as previously described in Antonyak et al., J. Biol. Chem. 279:41461-41467 (2004), which is hereby incorporated by reference in its entirety. […] The membranes were then incubated with horseradish-peroxidase-conjugated streptavidin (2 mg/ml; Pierce Inc., Rockford, Ill.) (diluted 1:2000) in BBST for 2 hours at room temperature, followed by washing (three times) for 20 minutes with BBST.

Where [4] appears, read: H2O2 20 μM, 24 hours, RA-differentiated SH-SY5Y.
The mark [5] stands for this setting: 2.5-10 μM β-amyloid1-42, 48 hours.

For the compound `CC1=C(/C=C/C(C)=C/C=C/C(C)=C/C(=O)O)C(C)(C)CCC1` [RA, all-trans-retinoic acid], in the data set with TGase [1] (20 μM RA, SH-SY5Y in low serum media), the TGase expression entry is “significant up-regulation”.
In the case of `CN(C)c1cccc2c(S(=O)(=O)NCCCCCN)cccc12` [MDC, monodansyl cadaverine], the “difference in cell viability in the presence or absence of MDC, 5 μM BA” value in data set [2] (25 μM MDC, 5 μM BA, 48 hours, p=0.027) is listed as “significant difference”. Further, the “difference in cell viability in the presence or absence of MDC, 10 μM BA” value in data set [2] (25 μM MDC, 10 μM BA, 48 hours, p=0.022) was “significant difference”. Besides, the “effect of MDC on H2O2-induced cytotoxicity” value in data set [2] (setting [4]) was “greatly enhanced cytotoxicity”. In addition, on guinea pig liver TGase (50 μM MDC, 0.1 μg TGase, 1 μg BA, 500 μM Ca2+, 60 minutes), the “TGase-catalyzed oligomerization (transamidation) of β-amyloid1-42” value was “completely eliminated”. In addition, in the data set on caspase-3 (β-amyloid1-42-treated cells), the “effect of MDC on β-amyloid1-42 activation of caspases” value was “did not block”. The “effect of MDC on β-amyloid1-42 stimulation of c-Jun kinase (JNK) activity” value with c-Jun kinase (JNK) is on record as “did not block”.
On to “β-amyloid1-42: most abundant and naturally occurring form of β-amyloid; HPLC-purified from American Peptide”, for which, in the data set with guinea pig liver TGase (Ca2+ levels below 1 mM), the “transamidation substrate for TGase in vitro” value is recorded as “effective transamidation substrate”. The “apoptotic response read out by caspase-3 activation” value in the data set with caspase-3 (oligomeric β-amyloid1-42, 37° C.) was “induced an apoptotic response”. Besides, the “levels of TGase in the membrane/particulate fractions” value in the data set with TGase [1] (setting [5]) was “dramatically increased”. Further, in the data set on TGase [1] (β-amyloid1-42 48 hours, absence or presence of RA), the TGase expression entry was “no effect”. Moreover, in the data set with SH-SY5Y cells, the “percentage of cells undergoing apoptosis” value was “increased”. Moreover, in the data set with TGase [3] (setting [5]), the “production of BPA conjugates (transamidation activity) in the membrane/particulate fractions” value is listed as “marked enhancement”.
As for `OO` [H2O2, hydrogen peroxide], the “reduction of cell viability” value in data set [2] (setting [4]) is reported as 30-40%. Further, the caspase activation result with caspase-3 (30 μM H2O2, 24 hours, RA-differentiated SH-SY5Y) is reported as “resulted in caspase activation”. Also, the cytosolic transamidation activity result in the data set with TGase [3] (H2O2, 24 hours) was “significant increase”.
